Experimental data as given in patent US20230312481A1, “SUBSTITUTED (PHTHALAZIN-1-YLMETHYL)UREAS, SUBSTITUTED N-(PHTHALAZIN-1-YLMETHYL)AMIDES, AND ANALOGUES THEREOF” (priority 2020, published 2023).
Read-outs that look alike come from different tables or passages of the source.

Test system: HBV rcDNA in HepDE19 cells
Assay: HepDE19 assay with bDNA quantitation of HBV rcDNA
Assay type: cell-based, hepatitis B virus
Details: HepDE19 cells, 7 day incubation, rcDNA measured by Quantigene 2.0 bDNA assay, top concentration 25 µM, read-out: DE-19bDNA EC50
Method in brief: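 HepDE19 cells were induced by tetracycline withdrawal, then treated with compounds (0.5% DMSO final) for 7 days at 37 °C. HBV rcDNA measured by bDNA assay with HBV-specific probes. Viability assessed on replicate plates (5,000 cells/well, 4 days) by CellTiter-Glo ATP content.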

[1] = Hepatitis B virus, HepDE19, 168 h

| SMILES | EC50 [1] [µM] | EC50 [µM] |
| --- | --- | --- |
| CC(c1n[nH]c(=O)c2cc(F)c(F)cc12)N(C)C(=O)c1ccc(F)c(C(F)F)c1 (racemic) [Compound 72, N-(1-(6,7-difluoro-4-oxo-3,4-dihydrophthalazin-1-yl)ethyl)-3-(difluoromethyl)-4-fluoro-N-methylbenzamide] | 0.34 | – |
| CC(c1n[nH]c(=O)c2cc(F)c(F)cc12)N(C)C(=O)c1ccc2scnc2c1 (single isomer, unassigned) [Compound 85, N-(1-(6,7-difluoro-4-oxo-3,4-dihydrophthalazin-1-yl)ethyl)-N-methylbenzo[d]thiazole-5-carboxamide] | – | 2.22 |
| CC(c1n[nH]c(=O)c2cc(F)c(F)cc12)N(C)C(=O)c1cc(F)c(C(F)F)c(F)c1 (single isomer, unassigned) [Compound 108, N-(1-(6,7-difluoro-4-oxo-3,4-dihydrophthalazin-1-yl)ethyl)-4-(difluoromethyl)-3,5-difluoro-N-methylbenzamide] | – | 9.95 |
| CC(c1n[nH]c(=O)c2cc(F)c(F)cc12)N(C)C(=O)c1cc2c(C(F)F)cc(F)cc2[nH]1 (single isomer, unassigned) [Compound 96, N-(1-(6,7-difluoro-4-oxo-3,4-dihydrophthalazin-1-yl)ethyl)-4-(difluoromethyl)-6-fluoro-N-methyl-1H-indole-2-carboxamide] | – | 2.52 |
| CC(c1n[nH]c(=O)c2cc(Cl)ccc12)N(CCCO)C(=O)Nc1ccc(F)cc1 (racemic) [Compound 14, 1-(1-(6-chloro-4-oxo-3,4-dihydrophthalazin-1-yl)ethyl)-3-(4-fluorophenyl)-1-(3-hydroxypropyl)urea] | 0.11 | – |
